Measured values published in ChEMBL document CHEMBL4482324, “Ash1l inhibitors and methods of treatment therewith” (2017).
Activity calls are given as the source filed them. The rule behind the calls is not given here.

Columns and labels:
MOLM-13 = test: Cytotoxicity in human MOLM13 cells assessed as reduction in cell viability incubated for 12 days with fresh compound replacement for every 4 days by MTT assay; format: functional
[1] = target: Histone-lysine N-methyltransferase ASH1L (Mus musculus) (UniProt Q99MY8); test: Inhibition of ASH1L in MLL-AF9 transformed mouse MA9 cells assessed as downregulation of Meis1 gene expression at 1.5 to 6 uM by quantitative RT-PCR analysis
[2] = target: Histone-lysine N-methyltransferase ASH1L (Homo sapiens, UniProt Q9NR48); test: Inhibition of MOCR-fused ASH1L SET-BAH ( 2069 to 2833 amino acids) (unknown origin) expressed as in Escherichia coli BL21 (DE3) T1R cells using SAM and chicken mono/dinucleosomes incubated for 1 hr by scintillation counting assay
RS4-11 = test: Cytotoxicity in human RS4:11 cells assessed as reduction in cell viability incubated for 12 days with fresh compound replacement for every 4 days by MTT assay; format: functional
[3] = target: Histone-lysine N-methyltransferase ASH1L (Mus musculus) (UniProt Q99MY8); test: Inhibition of ASH1L in MLL-AF9 transformed mouse MA9 cells assessed as downregulation of HOX9 gene expression at 1.5 to 6 uM by quantitative RT-PCR analysis
[4] = target: Histone-lysine N-methyltransferase ASH1L (Mus musculus) (UniProt Q99MY8); test: Inhibition of ASH1L in MLL-AF9 transformed mouse MA9 cells assessed as downregulation of HOX10 gene expression at 1.5 to 6 uM by quantitative RT-PCR analysis
SEM cells = test: Cytotoxicity in human SEM cells assessed as reduction in cell viability incubated for 12 days with fresh compound replacement for every 4 days by MTT assay; format: functional
MV4-11 = test: Cytotoxicity in human MV4-11 cells assessed as reduction in cell viability incubated for 12 days with fresh compound replacement for every 4 days by MTT assay; format: functional
[5] = Effect on HOX7 gene expression in Hoxa9/Meis1 transformed mouse HM2 cells at 6 to 12 uM by quantitative RT-PCR analysis; format: ADME
[6] = target: Histone-lysine N-methyltransferase ASH1L (Mus musculus) (UniProt Q99MY8); test: Inhibition of ASH1L in MLL-AF9 transformed mouse MA9 cells assessed as downregulation of Meis1 gene expression at 6 to 12 uM by quantitative RT-PCR analysis
[7] = Effect on Meis1 gene expression in Hoxa9/Meis1 transformed mouse HM2 cells at 6 to 12 uM by quantitative RT-PCR analysis; format: ADME
[8] = target: Histone-lysine N-methyltransferase ASH1L (Mus musculus) (UniProt Q99MY8); test: Inhibition of ASH1L in MLL-AF9 transformed mouse MA9 cells assessed as downregulation of HOX7 gene expression at 6 to 12 uM by quantitative RT-PCR analysis
[9] = Effect on HOX9 gene expression in Hoxa9/Meis1 transformed mouse HM2 cells at 6 to 12 uM by quantitative RT-PCR analysis; format: ADME
[10] = Cytotoxicity in Hoxa9/Meis1 transformed mouse HM2 cells assessed as reduction in cell viability incubated for 12 days with fresh compound replacement for every 4 days by MTT assay; format: cell-based
[11] = target: Histone-lysine N-methyltransferase ASH1L (Mus musculus) (UniProt Q99MY8); test: Inhibition of ASH1L in MLL-AF9 transformed mouse MA9 cells assessed as downregulation of HOX10 gene expression at 6 to 12 uM by quantitative RT-PCR analysis
[12] = Induction of cell differentiation in Hoxa9/Meis1 transformed mouse HM2 cells at 6 to 12 uM
[13] = Effect on HOX10 gene expression in Hoxa9/Meis1 transformed mouse HM2 cells at 6 to 12 uM by quantitative RT-PCR analysis; format: ADME
[14] = target: Histone-lysine N-methyltransferase ASH1L (Mus musculus) (UniProt Q99MY8); test: Inhibition of ASH1L in MLL-AF9 transformed mouse MA9 cells assessed as downregulation of HOX9 gene expression at 6 to 12 uM by quantitative RT-PCR analysis
[15] = Cytotoxicity in MLL-AF9 transformed mouse MA9 cells assessed as reduction in cell viability incubated for 12 days with fresh compound replacement for every 4 days by MTT assay; format: functional
Mus musculus = species on record: Mus musculus; test: Induction of cell differentiation in MLL-AF9 transformed mouse MA9 cells at 6 to 12 uM; format: functional

Structure (SMILES)	GI50 (MOLM-13)	inhibition [1]	IC50 [2]	GI50 (RS4-11)	inhibition [3]	inhibition [4]	GI50 (SEM cells)	GI50 (MV4-11)	Activity [5]	inhibition [6]	Activity [7]	inhibition [8]	Activity [9]	GI50 at 288 h [10]	inhibition [11]	Activity [12]	Activity [13]	inhibition [14]	GI50 [15]	Activity (Mus musculus)
NC(=S)c1cccc(-c2cn(CCCC(F)(F)F)c3cc(-c4ccn[nH]4)ccc23)c1	1.4 µM	Active	< 20 µM	2.8 µM	Active	Active	1.1 µM	1.8 µM												
NC(=S)c1cccc(-c2cn(CC(CF)CF)c3cc(N)ccc23)c1	9 µM		4.6 µM					2 µM	Non-Toxic	Active	Non-Toxic	Active	Non-Toxic	33 µM	Active	Non-Toxic	Non-Toxic	Active	6 µM	Active
NC(=S)c1cccc(-c2c[nH]c3ccc(O)cc23)c1	38 µM		> 100 µM					27 µM	Non-Toxic	inactive	Non-Toxic	inactive	Non-Toxic	62 µM	inactive		Non-Toxic	inactive	43 µM	
NC(=S)c1cccc(-c2ccc(O)cc2)c1F			> 100 µM																	
